# In patent US6171575A, “Method of radioisotopic assessment of the integrity and function of the nose-brain barrier” (priority 1998, dated 2001):
# “Also recorded” adds a separate entry of the source. Where two headings read alike, the source gives them in different places.
# Legend:
# [1] = cited from earlier work
# [2] = renogrammatic analysis; imaging and dynamic studies of cerebrospinal fluid flow; cited from earlier work
# [3] = Radioisotopic penetration across the nose-brain barrier (NBB) after intranasal spray, gamma camera ROI
# Text: (§1) A. The radiopharmaceutical was sprayed deep into the nose through the nostril as the examinee laid on the scintigraphic table with the head placed in vertical position. B. The resultant radioactivity residing on the olfactory mucosa. C. The region of interest (ROI) placed just beneath the nose-brain barrier on the (cathode Ray Tube) so as to record the penetrating radioactivity. D. Pharyngeal radioactivity escaped from the olfactory pit.
# (§2) The mixture was sprayed into the depth of the nose. […] In order to protect the nasal mucosa, vinyl tubing was attached to the end of the nozzle of a sprayer. As the head of an examinee was positioned vertically, so as to allow the droplets to fall onto the olfactory mucosa, the examiner sprayed the mixture deep into one of the nostrils; and
# (§3) (2) Assessing the radioisotopic penetration across the NBB The radioisotopic spray side of the head of an examinee was placed against the detector collimator of a gamma camera for 10 minutes. Radioisotopic penetration was defined as the amount of radioactivity recorded in the regions of interest (ROIs) placed over the intracranial space adjoing the cribrijon lamine. The change of the recorded radioactivity in this ROI was analyzed along with that in a remote control brain area.
# (§4) Test were performed to determine the penetration potential of radio-pharmaceuticals of ^99m Tc-HMPAO and ^99m Tc-DTPA.
# [4] = in vivo
# Text: as §1, §2, §3, §4
# [5] = agent that circulates in the blood; cited from earlier work
passage of the nose-brain barrier [4],Compound,water solubility [1],extracellular spreading [2],"radioisotopic penetration across the NBB (radioactivity in juxta-cribriform brain ROI) ([3]; healthy person, intranasal spray, 10 minutes gamma camera)","passage of the nose-brain barrier ([3]; overall conclusion, human beings, olfactory pathology and/or healthy control)","time after which radioactivity in the juxta-cribriform brain increased significantly ([3]; person with anosmia, left nostril) [min]","radioisotopic penetration across the NBB (radioactivity in juxta-cribriform brain ROI) ([3]; person with anosmia, left nostril, 148 MBq per 0.2 ml puff (example preparation))",passage through the blood-brain barrier [5]
–,"O=C([O-])CN(CCN(CC(=O)[O-])CC(=O)[O-])CCN(CC(=O)[O-])CC(=O)[O-].[99Tc+4] [^99m Tc-DTPA, 99mTc-diethylenetriaminepenta-acetic acid]",water-soluble,spreads extracellularly,the change was statistically insignificant; also recorded: increased but without any statistical significance,shown to pass the nose-brain barrier,5,significant increase in radioactivity in the juxta-cribriform lamional brain; also recorded: increased significantly,–
shown not to pass the nose-brain barrier,C/C(=N\[O-])[C@@H](C)[N-]CC(C)(C)C[N-][C@H](C)/C(C)=N/O.[O]=[99Tc+3] (racemic) [^99m Tc-HMPAO],–,–,–,–,–,–,passes through the blood-brain barrier
